# Where two headings read alike, the source gives them in different places.
# Columns and labels:
# [1] = tested on: SKNO-1; assay: MTS viability assay, 72 h; conditions: SKNO-1, 72 h
# Description: (§4) 15-25 ×10^3 of MV-4-11, MOLM-13, MOLM-14, MOLM-16, KG-1, Eol-1, SKM-1, PL-21, GDM-1, SKNO-1, RS4;11, Kasumi-3 and Kasumi-6 cells were seeded in 150 μL of culture medium onto individual wells in a 96 well plates, in triplicates. On the same day, 50 μL of medium containing tested inhibitor was added to the wells. Each compound was tested at 8 concentrations, in triplicates. As a negative control, the medium containing 0.1% DMSO was used. […] Staurosporine was used at 10 μM as a positive control. One the day of drug addition, basal signal from untreated cells was measured from in triplicate to determine time zero (T0). […] GI50 and LC50 values were extrapolated from a variable (four-parameter) dose-response curve fitted in GraphPad Prism.
# [2] = tested on: KG-1; assay: MTS viability assay, 72 h; conditions: KG-1, 72 h; for CC50: read-out: LC50
# Description: as §4
# [3] = tested on: RS4;11; assay: MTS viability assay, 72 h; conditions: for CC50: read-out: LC50
# Description: as §4
# [4] = tested on: GDM-1; assay: MTS viability assay, 72 h; conditions: GDM-1, 72 h
# Description: as §4
# [5] = tested on: MV-4-11; assay: MTS viability assay, 72 h
# Description: (§5) On the same day, 50 μL of medium containing tested inhibitor was added to the wells. Each compound was tested at 8 concentrations, in triplicates. As a negative control, the medium containing 0.1% DMSO was used. […] Staurosporine was used at 10 μM as a positive control. One the day of drug addition, basal signal from untreated cells was measured from in triplicate to determine time zero (T0). […] GI50 and LC50 values were extrapolated from a variable (four-parameter) dose-response curve fitted in GraphPad Prism.
# [6] = tested on: OCI-AML-3; assay: MTS viability assay, 72 h; conditions: OCI-AML-3, 72 h
# Description: as §4
# [7] = tested on: KASUMI-6; assay: MTS viability assay, 72 h
# Description: as §4
# [8] = tested on: PL-21; assay: MTS viability assay, 72 h; conditions: PL-21, 72 h
# Description: as §4
# [9] = tested on: MOLM-14; assay: MTS viability assay, 72 h; conditions: Homo sapiens, MOLM-14, 72 h
# Description: as §4
# [10] = tested on: SIG-M5; assay: MTS viability assay, 72 h; conditions: SIG-M5, 72 h; for CC50: read-out: LC50
# Description: as §5
# [11] = tested on: MOLM-6; assay: MTS viability assay, 72 h; conditions: for CC50: read-out: LC50
# Description: as §4
# [12] = tested on: MOLM-13; assay: MTS viability assay, 72 h; conditions: MOLM-13, 72 h; for CC50: read-out: LC50
# Description: as §4
# [13] = tested on: MOLM-16; assay: MTS viability assay, 72 h
# Description: as §5
# [14] = tested on: OCI-AML-2; assay: MTS viability assay, 72 h
# Description: as §5
# [15] = tested on: EOL-1; assay: MTS viability assay, 72 h
# Description: as §4
# [16] = tested on: KASUMI-3; assay: MTS viability assay, 72 h; conditions: for CC50: read-out: LC50
# Description: as §4
# [17] = tested on: SKM-1; assay: MTS viability assay, 72 h; conditions: SKM-1, 72 h; for CC50: read-out: LC50
# Description: as §5
# [18] = tested on: MOLM-13 xenografts; assay: MOLM-13 subcutaneous xenograft; format: in vivo; conditions: MOLM-13, SCID mice; AC220 10 mg/kg QD, other doses not given
# From the text: (§1) All animals were handled in strict accordance with good animal practice as defined by the relevant national and local animal welfare bodies. SCID and SCID/beige C.B-17 mice were provided by Harlan Laboratories or Charles River Laboratories, and were maintained in pathogen free conditions. For the xenograft experiments, age-matched (9-11 weeks old) females were used. 5×10^6 of MV-4-11 or MOLM-16 cells were suspended in a mixture (1:1, v:v) of PBS with Matrigel (BD Biosciences,) and injected subcutaneously (sc), in a total volume of 100 μL, above the groin on the right hind limb. For MOLM-13 and KG-1 cells, a mixture (3:1, v:v) of PBS and Matrigel HC (BD Bioscience,) was used to inject 5 × 10^6 of cell per mouse subcutaneously (sc), in a total volume of 100 μL. When tumors reached 100-130 mm^3, mice were randomized into uniform groups (6-9 mice per group) and subsequently administered the compound. […] At the end of the experiment, mice were anesthetized with isofluran and blood samples for total cell counts and biochemistry were obtained by retro-orbital bleeding. […] 5×10^6 cells suspended in a mixture (3:1, v:v) of PBS and Matrigel were injected as described above. […] Tumor volume was monitored every second day and calculated using the formula: TV = (a^2×b)/2, where “a” is the short axis in millimeters, and “b” is the long axis in millimeters. Body weight was assessed every day.
# [19] = tested on: MOLM-16 (FLT3-WT) cells; assay: Western blot of FLT3/PIM downstream signaling; format: cell-based; conditions: MOLM-16, 4 hours
# Description: (§2) Thereafter, we assessed the activities of FLT3-ITD – induced key pro-survival signaling pathways; STAT5, RAF/MEK/ERK and PI3K/AKT (Figure 3). […] Since the expression of a major anti-apoptotic BCL2 family member, MCL1, is regulated by translation, and PIM kinases regulate protein synthesis through 4EBP1, we also assessed the abundance of MCL1.
# (§3) Cells were collected, washed twice with cold PBS, and lysed in RIPA buffer and kept on ice for 10 min. Tumor specimens from xenograft studies were homogenized in RIPA buffer using OMNI TH Tissue Homogenizer and kept on ice for 30 min. After incubation, cell and tumor lysates were centrifuged at 13,000×g at 4°C for 10 min and the supernatants were stored at −80°C until use. Protein concentration was measured using the Bradford method. For SDS-PAGE, 50 μg of protein in the Laemmli sample buffer was loaded onto 10% polyacrylamide gels and electrophoresed. Thereafter, proteins were transferred onto polyvinylidene fluoride (PVDF) membranes (Millipore). After blocking with 5% non-fat dry milk/TBS-T or 2% BSA/TBS-T, membranes were incubated with specific primary antibodies (listed in Supplementary Table 2) at 4 °C overnight. After extensive washing in PBS-T, membranes were incubated for 60 min with appropriate secondary peroxidase-conjugated IgG. The immunoreactive proteins were detected using an enhanced chemiluminescence (ECL) substrate (GE Healthcare) and visualized with Hyperfilm-ECL (GE Healthcare Biosciences).
# [20] = tested on: MV-4-11 (FLT3-ITD+) cells; assay: Western blot of FLT3/PIM downstream signaling; format: cell-based; conditions: MV-4-11, 4 hours
# Description: as §2, §3
# [21] = tested on: KG-1 (FLT3-WT) tumor; assay: KG-1 subcutaneous xenograft; format: in vivo; conditions: KG-1, SCID mice; doses not given
# From the text: as §1
# [22] = tested on: MV-4-11; assay: Drug interactions (combination index), MTS; format: cell-based; conditions: MV-4-11
# Description: and AC220 in AML cell lines was assessed using an MTS assay. Cells viability was measured after 72 h incubation with three-fold serial dilutions of compounds, starting at 10 µM concentration. Obtained data were presented as percentage of viable cells compared with control (untreated) cells viability. Error bars indicate SD.
# 11 cells. Combination index (CI) are shown on the Y axis and compound concentrations are shown on X and Z axes. Values […] and below 0.7- a synergy between tested compounds. Values above 1 indicate an antagonistic effect.
# (1 picture or pasted object on this page, not shown here)
# [23] = tested on: MOLM-14 cells transduced with FLT3 TKD point mutations (D835Y, D835V and F691L); assay: MTS viability of MOLM-14 cells with FLT3 alleles; format: cell-based; conditions: 72 h
smiles,measurement,setting,value
CC(C)(C)c1cc(NC(=O)Nc2ccc(-c3cn4c(n3)sc3cc(OCCN5CCOCC5)ccc34)cc2)no1 [AC220],GI50,[1],6 nM
same,GI50,[2]; Homo sapiens,210 nM
same,CC50,[2]; Homo sapiens,> 10 µM
same,GI50,"[3]; Homo sapiens, RS4-11, 72 h",132 nM
same,CC50,"[3]; Homo sapiens, RS4-11, 72 h",6.96 µM
same,GI50,[4]; Homo sapiens,33 nM
same,GI50,"[5]; Homo sapiens, MV4-11, 72 h",< 5 nM
same,CC50,"[5]; Homo sapiens, MV4-11, 72 h, read-out: LC50",< 5 nM
same,GI50,[6]; Homo sapiens,1180 nM
same,CC50,"[6]; Homo sapiens, read-out: LC50",> 10 µM
same,GI50,[7]; 72 h,< 5 nM
same,GI50,[8],412 nM
same,GI50,[9],< 5 nM
same,CC50,[9]; read-out: LC50,196 nM
same,GI50,[10]; Homo sapiens,558 nM
same,CC50,[10]; Homo sapiens,3.09 µM
same,GI50,[11]; 72 h,681 nM
same,CC50,[11]; 72 h,> 10 µM
same,GI50,[12]; Homo sapiens,< 5 nM
same,CC50,[12]; Homo sapiens,42 nM
same,GI50,"[13]; MOLM16, 72 h",688 nM
same,CC50,"[13]; MOLM16, 72 h, read-out: LC50",8.23 µM
same,GI50,"[14]; Homo sapiens, OCI-AML2, 72 h",499 nM
same,CC50,"[14]; Homo sapiens, OCI-AML2, 72 h, read-out: LC50",1240 nM
same,GI50,"[15]; Homo sapiens, EOL1, 72 h",< 5 nM
same,GI50,"[16]; Kasumi-3, 72 h",< 5 nM
same,CC50,"[16]; Kasumi-3, 72 h",< 0.005 µM
same,GI50,[17]; Homo sapiens,1130 nM
same,CC50,[17]; Homo sapiens,7.79 µM
N[C@@H]1CCCN(c2c(/C=C3\SC(=O)NC3=O)cccc2-c2ccccc2)C1 [AZD1208],TGI,[18],19.5%
same,GI50,[1]; dilutions starting at 10 µM,5 nM
same,S6 (S235/236) phosphorylation,[19],profound inhibition
same,MCL1 abundance,[20],did not alter
same,STAT5 signaling,[20],did not change
same,GI50,[2]; dilutions starting at 10 µM,20 nM
same,CC50,[2]; 50% death relative to T0,> 10 µM
same,GI50,"[3]; RS4;11, 72 h, dilutions starting at 10 µM",4220 nM
same,CC50,"[3]; RS4;11, 72 h, 50% death relative to T0",> 10 µM
same,GI50,[4]; dilutions starting at 10 µM,506 nM
same,GI50,"[5]; MV-4-11, 72 h, dilutions starting at 10 µM",1460 nM
same,GI50,[6]; dilutions starting at 10 µM,> 10000 nM
same,GI50,"[7]; KASUMI-6, 72 h, dilutions starting at 10 µM",19 nM
same,GI50,[8]; dilutions starting at 10 µM,> 10000 nM
same,GI50,[10]; dilutions starting at 10 µM,> 10000 nM
same,CC50,[10]; 50% death relative to T0,> 10 µM
same,TGI,[21],59.9%
same,GI50,"[11]; MOLM-6, 72 h, dilutions starting at 10 µM",973 nM
same,CC50,"[11]; MOLM-6, 72 h, 50% death relative to T0",> 10 µM
same,GI50,[12]; dilutions starting at 10 µM,306 nM
same,CC50,[12]; 50% death relative to T0,> 10000 nM
same,combination of AZD1208 and AC220,[22],synergistic effect
same,GI50,"[13]; MOLM-16, 72 h, dilutions starting at 10 µM",16 nM
same,GI50,"[14]; OCI-AML-2, 72 h, dilutions starting at 10 µM",333 nM
same,GI50,"[15]; EOL-1, 72 h, dilutions starting at 10 µM",89 nM
same,GI50,"[16]; KASUMI-3, 72 h, dilutions starting at 10 µM",57 nM
same,CC50,"[16]; KASUMI-3, 72 h, 50% death relative to T0",4.63 µM
same,viability of MOLM-14 cells with FLT3-TKD mutants versus FLT3-ITD or parental cells,[23],only marginally affected the viability
same,GI50,[17]; dilutions starting at 10 µM,> 10000 nM
same,CC50,[17]; 50% death relative to T0,> 10 µM

# From article PMC5908295 (Oncotarget, 2018)
